# Test results reported in PubChem BioAssay (NCI).
#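 Cells were grown in 96-well plates and exposed to each compound for 48 hours at five concentrations; endpoints were interpolated linearly between bracketing concentrations, or set to the highest concentration if not reached. At the GI50, growth is halved. TGI: total growth inhibition.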
# Tests used:
# Assay in all cases: NCI anticancer screen, dose series, 48 h
# [1] = system: UACC-257 melanoma
# [2] = system: CAKI-1 renal
# [3] = system: EKVX NSCLC
# [4] = system: OVCAR-3 ovarian
# [5] = system: M14 melanoma
# [6] = system: ACHN renal
# [7] = system: SK-MEL-28 melanoma
# [8] = system: MDA-MB-435
# [9] = system: DU-145 prostate
# [10] = system: HOP-92 NSCLC
# [11] = system: A549 NSCLC
# [12] = system: IGROV1 ovarian
# [13] = system: SK-OV-3 ovarian
# [14] = system: MDA-MB-231 breast
# [15] = system: NCI/ADR-RES ovarian
# [16] = system: NCI-H522 lung
# [17] = system: RPMI-8226 leukemia
# [18] = system: HCC-2998 colon
# [19] = system: HL-60(TB) leukemia
# [20] = system: NCI-H460 lung
# [21] = system: SF-539 CNS
# [22] = system: OVCAR-8 ovarian
# [23] = system: 786-0 renal
# [24] = system: KM12 colon
# [25] = system: HCT-116 colon
# [26] = system: HS 578T breast
# [27] = system: HT29 colon
# [28] = system: SNB-19 CNS
# [29] = system: COLO 205 colon
# [30] = system: MALME-3M melanoma
# [31] = system: T-47D breast
# [32] = system: MOLT-4 leukemia
# [33] = system: A498 renal
# [34] = system: MCF7 breast
# [35] = system: HOP-62 NSCLC
# [36] = system: SK-MEL-2 melanoma
# [37] = system: SR leukemia
# [38] = system: NCI-H23 lung
# [39] = system: OVCAR-5 ovarian
# [40] = system: PC-3 prostate
# [41] = system: OVCAR-4 ovarian
# [42] = system: CCRF-CEM leukemia
# [43] = system: SW-620 colon
# [44] = system: SN12C renal
# [45] = system: NCI-H226 lung
# [46] = system: SNB-75 CNS
# [47] = system: HCT-15 colon
# [48] = system: UO-31 renal
# [49] = system: RXF 393 renal
# [50] = system: UACC-62 melanoma
# [51] = system: K-562 leukemia
# [52] = system: BT-549 breast
# [53] = system: SK-MEL-5 melanoma
# [54] = system: U251 CNS
# [55] = system: TK-10 renal
# [56] = system: SF-295 CNS
# [57] = system: LOX IMVI melanoma
# [58] = system: SF-268 CNS
smiles,measurement,setting,value
O=C(c1ccccc1)c1c(C(F)(F)F)n([O-])c2cc(C(F)(F)F)ccc2[n+]1=O,GI50,[1],1710 nM
same,TGI,[1],3.35 µM
same,GI50,[2],491 nM
same,TGI,[2],956 nM
same,GI50,[3],1730 nM
same,TGI,[3],3.42 µM
same,GI50,[4],1610 nM
same,TGI,[4],3.11 µM
same,GI50,[5],1680 nM
same,TGI,[5],3.17 µM
same,GI50,[6],1540 nM
same,TGI,[6],2930 nM
same,GI50,[7],1710 nM
same,TGI,[7],3.23 µM
same,GI50,[8],1600 nM
same,TGI,[8],3.02 µM
same,GI50,[9],1220 nM
same,TGI,[9],2470 nM
same,GI50,[10],1510 nM
same,TGI,[10],2950 nM
same,GI50,[11],1720 nM
same,TGI,[11],3.48 µM
same,GI50,[12],207 nM
same,TGI,[12],489 nM
same,GI50,[13],1770 nM
same,TGI,[13],3.21 µM
same,GI50,[14],1600 nM
same,TGI,[14],3.11 µM
same,GI50,[15],2010 nM
same,TGI,[15],5.12 µM
same,GI50,[16],1230 nM
same,TGI,[16],2720 nM
same,GI50,[17],1490 nM
same,TGI,[17],3.75 µM
same,GI50,[18],1880 nM
same,TGI,[18],3.44 µM
same,GI50,[19],550 nM
same,TGI,[19],1580 nM
same,GI50,[20],1680 nM
same,TGI,[20],3.42 µM
same,GI50,[21],1740 nM
same,TGI,[21],3.17 µM
same,GI50,[22],1870 nM
same,TGI,[22],5.46 µM
same,GI50,[23],655 nM
same,TGI,[23],1400 nM
same,GI50,[24],1600 nM
same,TGI,[24],3.17 µM
same,GI50,[25],951 nM
same,TGI,[25],2360 nM
same,GI50,[26],1800 nM
same,TGI,[26],4.29 µM
same,GI50,[27],983 nM
same,TGI,[27],2860 nM
same,GI50,[28],1890 nM
same,TGI,[28],3.46 µM
same,GI50,[29],1410 nM
same,TGI,[29],3.27 µM
same,GI50,[30],1600 nM
same,TGI,[30],3.33 µM
same,GI50,[31],1460 nM
same,TGI,[31],3.38 µM
same,GI50,[32],600 nM
same,TGI,[32],2290 nM
same,GI50,[33],2220 nM
same,TGI,[33],5.22 µM
same,GI50,[34],1420 nM
same,TGI,[34],3.29 µM
same,GI50,[35],1830 nM
same,TGI,[35],3.5 µM
same,GI50,[36],2090 nM
same,TGI,[36],3.93 µM
same,GI50,[37],1170 nM
same,TGI,[37],3.53 µM
same,GI50,[38],1540 nM
same,TGI,[38],4.9 µM
same,GI50,[39],1990 nM
same,TGI,[39],5.54 µM
same,GI50,[40],1190 nM
same,TGI,[40],2540 nM
same,GI50,[41],1190 nM
same,TGI,[41],2890 nM
same,GI50,[42],600 nM
same,TGI,[42],2440 nM
same,GI50,[43],619 nM
same,TGI,[43],1690 nM
same,GI50,[44],1830 nM
same,TGI,[44],4.4 µM
same,GI50,[45],1830 nM
same,TGI,[45],4.01 µM
same,GI50,[46],1630 nM
same,TGI,[46],3.05 µM
same,GI50,[47],1600 nM
same,TGI,[47],3.24 µM
same,GI50,[48],1320 nM
same,TGI,[48],2670 nM
same,GI50,[49],1340 nM
same,TGI,[49],2920 nM
same,GI50,[50],1730 nM
same,TGI,[50],3.32 µM
same,GI50,[51],231 nM
same,TGI,[51],559 nM
same,GI50,[52],910 nM
same,TGI,[52],2270 nM
same,GI50,[53],1690 nM
same,TGI,[53],3.24 µM
same,GI50,[54],1540 nM
same,TGI,[54],2970 nM
same,GI50,[55],1750 nM
same,TGI,[55],3.18 µM
same,GI50,[56],1570 nM
same,TGI,[56],2970 nM
same,GI50,[57],258 nM
same,TGI,[57],745 nM
same,GI50,[58],1580 nM
same,TGI,[58],3.14 µM
